How the values were obtained:
[1] = system: PC-9 (EGFR exon 19 deletion); test: Cellular IC50, Cell Titer Glo, PC-9 cell line; format: cell-based; conditions: Homo sapiens, PC-9 cells, 72 hours
Protocol: (§1) The PC-9 cell line was purchased from Sigma, and the HCC827 cell line was purchased from ATCC. Each cell line was maintained at ≤passage 10 at 37° C. in a humidified incubator with 5% CO2. Cells were plated in 96-well optical bottom plates (Corning #3903; Corning, NY) at a cell density of 5,000 cells/well, allowed to adhere for minimally 16 hours, and subsequently treated with the test compounds using an 11-point serial dilution (1:3) in duplicate using an HP D300 digital 4 dispenser (Tecan, Morrisville, NC). 72 hours after addition of the test compounds, Cell Titer Glo reagent (Promega, Madison, WI) was added to the plate according to manufacturer's protocol and luminescence measured using a Spectramax M5 (Molecular Devices, San Jose, CA). IC50s were calculated using the 4-parameter variable slope curve fit using the equation below where, Y and X are variables plotted, Top and Bottom are plateaus in the units of the Y axis, LogIC50 is the Log transformation of the IC50 value and HillSlope is the Hill Slope for the curve and describes curve steepness (GraphPad Prism, version 6.07, GraphPad Software, Inc.). Y=Bottom+(Top−Bottom)/(1+10((LogIC50−X)*HillSlope))).

[2] = system: HCC827 (EGFR exon 19 deletion); test: Cellular IC50, Cell Titer Glo, HCC827 cell line; format: cell-based; conditions: Homo sapiens, HCC827 cells, 72 hours
Protocol: as §1

[3] = Brain penetration in non-tumor bearing mice; format: in vivo; conditions: for Brain Penetration (% of plasma): brain to plasma percentage; for Kpuu (Avg): unbound ratio of drug in brain to plasma
Text: Disclosed in table 5 Brain to plasma percentages and unbound ratios of drugs in brain to plasma of indicated drugs in non-tumor bearing mice

Structure (SMILES)	IC50 [1] [nM]	IC50 [2] [nM]	Brain Penetration (% of plasma) [3]	Kpuu (Avg) [3]
CN1CC2(C1)CN(C[C@H]1COc3cc4ncnc(Nc5cccc(Br)c5F)c4cc3O1)C2	10.1	5.9	–	–
CN1CCC12CN(C[C@H]1COc3cc4ncnc(Nc5cccc(Br)c5F)c4cc3O1)C2	9.4	7	–	–
CN1CCN(C[C@H]2COc3cc4ncnc(Nc5cccc(Br)c5F)c4cc3O2)CC(F)(F)C1	140	50.6	–	–
C#Cc1cccc(Nc2ncnc3cc4c(cc23)OCCO4)c1 [JGK005]	–	–	64.8 % of plasma	0.491
Fc1cccc(Nc2ncnc3cc4c(cc23)OCCO4)c1F [JGK028]	–	–	106.2 % of plasma	1.037
Fc1c(I)cccc1Nc1ncnc2cc3c(cc12)OCCO3 [JGK042]	–	–	167.6 % of plasma	1.033
CN1CCC2CN(C[C@H]3COc4cc5ncnc(Nc6cccc(Br)c6F)c5cc4O3)CC21 (stereo partly shown)	12.9	5.9	–	–
CN1CCN(C[C@H]2COc3cc4ncnc(Nc5cccc(Br)c5F)c4cc3O2)CCC1C(F)(F)F (stereo partly shown)	54	36.9	–	–
CN1CC2CN(C[C@H]3COc4cc5ncnc(Nc6cccc(Br)c6F)c5cc4O3)CC2C1 (stereo partly shown)	21.7	14.3	–	–
Fc1c(Cl)cccc1Nc1ncnc2cc3c(cc12)OCCO3 [JGK010]	–	–	106.4 % of plasma	1.045
C#Cc1cccc(Nc2ncnc3cc4c(cc23)OCCO4)c1F [JGK038]	–	–	84.3 % of plasma	0.575

From US20240058340A1, “COMPOSITIONS AND METHODS FOR TREATING CANCER” (The Regents of the University of California, priority 2020, published 2024)
